Measurements reported in PubChem BioAssay (NCI).
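96-well plates; 48 h exposure; 5 concentrations. Endpoints by linear interpolation between flanking doses. Not reached: highest tested concentration assigned. Here, GI50 denotes the concentration required for 50% inhibition of growth. TGI: concentration producing complete growth inhibition.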

Legend:
Assay in all cases: DTP human tumour cell line panel, 48 h
[1] = tested on: SK-MEL-28 melanoma
[2] = tested on: SNB-19 CNS
[3] = tested on: COLO 205 colon
[4] = tested on: OVCAR-8 ovarian
[5] = tested on: M14 melanoma
[6] = tested on: SF-539 CNS
[7] = tested on: OVCAR-3 ovarian
[8] = tested on: OVCAR-5 ovarian
[9] = tested on: HL-60(TB) leukemia
[10] = tested on: T-47D breast

| Compound | TGI [1] [µM] | TGI [2] [µM] | TGI [3] [µM] | TGI [4] [µM] | TGI [5] [µM] | TGI [6] [µM] | TGI [7] [µM] | TGI [8] [µM] | TGI [9] [µM] | TGI [10] [µM] | GI50 [1] [µM] | GI50 [2] [µM] | GI50 [3] [µM] | GI50 [4] [µM] | GI50 [5] [µM] | GI50 [6] [µM] | GI50 [7] [µM] | GI50 [8] [µM] | GI50 [9] [µM] | GI50 [10] [µM] |
| --- | --- | --- | --- | --- | --- | --- | --- | --- | --- | --- | --- | --- | --- | --- | --- | --- | --- | --- | --- | --- |
| CC(CSc1nc2c(c(=N)n1-c1ccccc1)c(=S)n(-c1ccccc1)c(=S)n2-c1ccccc1)CN(C)C (stereo unspecified) | 4.67 | 17.8 | 3.48 | 3 | 3.56 | 7.9 | 3.09 | 26.8 | 2.37 | – | – | – | – | – | – | – | – | – | – | – |
| COc1cc(/C=C2\C(=O)N(c3ccc(Cl)cc3)C(c3ccccc3)S2(=O)=O)cc(OC)c1OC (stereo unspecified) | > 100 | > 100 | > 32.8 | > 100 | > 61.6 | > 100 | > 100 | > 100 | > 100 | > 100 | – | – | – | – | – | – | – | – | – | – |
| CCOC(=O)/C(=C/c1cn(C(C)=O)c2ccccc12)P(=O)(OC)OC | > 100 | – | – | > 100 | > 100 | – | 64.8 | > 100 | 48.4 | 60.5 | – | – | – | – | – | – | – | – | – | – |
| COc1ccc(C2CC(c3cccc(Nc4ccncc4)c3)=NN2c2ccccc2)cc1 (stereo unspecified) | 3.24 | 5.79 | 6.14 | 4.77 | 3.74 | 3.04 | 3.52 | 12.1 | 4.06 | 5.83 | 1.69 | 2.2 | 2.66 | 2.19 | 1.87 | 1.61 | 1.86 | 3.29 | 2 | 2.3 |
| CN(C)CCCNC(=O)N/N=C/c1ccccn1 | > 10 | – | > 10 | > 10 | > 10 | > 10 | – | > 10 | > 10 | > 10 | – | – | – | – | – | – | – | – | – | – |
| COc1ccc(C=C2C(C)=NN(c3cccc(Cl)c3)C23C(Cl)C(=O)N3c2nc3ccccc3s2)cc1 (stereo unspecified) | 23.9 | – | – | 42 | 44.5 | > 100 | 42.9 | 37.6 | 6.62 | > 100 | – | – | – | – | – | – | – | – | – | – |
| O=C(CN1CCCC1)Nc1ccc2c(c1)C1Oc3ccccc3CC1CO2 (stereo unspecified) | – | – | 27.8 | > 100 | 36.4 | 39.5 | > 100 | 93.4 | > 100 | > 100 | – | – | – | – | – | – | – | – | – | – |
| COc1cc2c(cc1OCCN1CCN(CCOc3cc4c(cc3OC)C(=O)N3CCC[C@H]3C=N4)CC1)N=C[C@@H]1CCCN1C2=O | > 100 | > 100 | > 90.4 | > 100 | > 83.6 | > 64.3 | 66.8 | 63.7 | > 100 | > 100 | – | – | – | – | – | – | – | – | – | – |
| CCOC(=O)CC1C(C(=O)OCC)=Cn2c([nH]c3cccc4cccc2c43)=C1C(=O)OCC (stereo unspecified) | > 100 | > 100 | > 100 | > 100 | > 100 | – | > 100 | > 100 | > 100 | > 100 | – | – | – | – | – | – | – | – | – | – |
| CC(=O)CCN1CC2CN=NC2(C#N)C1 (stereo unspecified) | > 100 | > 100 | > 100 | > 100 | > 100 | > 100 | > 100 | > 100 | > 62.6 | > 100 | – | – | – | – | > 100 | > 100 | – | – | – | – |
| COc1cc2c(cc1OC)C(C1CC1)ON(C)CC2 (stereo unspecified) | > 100 | > 100 | > 100 | > 100 | > 100 | > 100 | > 100 | > 100 | > 100 | > 100 | – | – | – | – | – | – | – | – | – | – |
| Cc1cc(C)c(C2=NO[C@@H]3[C@H]2C(=O)C=C2N(Cc4ccccc4)CCO[C@@]23O)c(C)c1 | > 100 | > 100 | > 100 | > 100 | – | > 100 | > 100 | > 100 | > 100 | – | – | – | – | – | – | – | – | – | – | – |
| Nc1ncnc2c1ncn2CCCNO | > 100 | > 100 | > 100 | > 100 | > 100 | > 100 | > 100 | > 100 | > 100 | > 100 | – | – | – | – | – | – | – | – | – | – |
| Nc1ccc2c3c1cccc3c(=O)n1c3ccc(Cc4ccc5c(c4)nc4c6ccc(N)c7cccc(c(=O)n54)c76)cc3nc21 | > 100 | > 100 | > 100 | > 100 | > 100 | > 100 | > 100 | > 100 | > 100 | – | – | – | – | – | – | – | – | – | – | – |
| C=C(C)C1CCC2(C)C1CCC1(C)C2CCC2C3(C)C4OC(OC4=O)C(C)(C)C3CCC21C (stereo unspecified) | > 100 | > 100 | > 100 | > 100 | > 100 | > 100 | > 100 | > 100 | 80.1 | > 100 | – | – | – | – | – | – | – | – | – | – |
| C[C@]12CC[C@H]3[C@@H](CCC4=C/C(=N/OCCN5CCCCC5)CC[C@@]43C)[C@@H]1CC[C@@H]2O | 28 | 18.5 | 47.3 | > 100 | 23.8 | – | 32 | 40.7 | 8.05 | > 100 | – | – | – | – | – | – | – | – | – | – |
| CN(C)c1ccc(/C=C2\N=C(c3ccccc3)N(c3nc4ccc(Sc5ccccc5)cc4[nH]3)C2=O)cc1 | > 100 | > 100 | 45.9 | > 100 | > 100 | – | 59.3 | > 100 | 33.3 | > 100 | – | – | – | – | – | – | – | – | – | – |
| N=C(N)c1ccc(N=Nc2c(O)c(C(=O)Nc3ccccc3)cc3ccccc23)cc1 | > 100 | 51.5 | > 76.9 | 34.5 | > 100 | 43 | > 53.3 | > 62.4 | 55.1 | 38.2 | – | – | – | – | – | – | – | – | – | – |
| COC(=O)c1sc2c(Cl)c(Cl)sc2c1Cl | > 100 | > 100 | > 100 | > 100 | > 100 | > 100 | > 100 | > 100 | > 100 | > 100 | – | – | – | – | – | – | – | – | – | – |
| CC1(c2ccc(Cl)cc2)c2ccccc2C(=O)N1CCCN1C(=O)c2ccccc2C1=O (stereo unspecified) | > 100 | 78.5 | 36.2 | > 100 | – | – | 99.7 | – | > 100 | > 100 | – | – | – | – | – | – | – | – | – | – |
| CC(C)C(Nc1c2ccccc2[n+](C)c2ccccc12)C(=O)O (stereo unspecified) | – | > 100 | > 100 | > 100 | > 100 | > 100 | > 100 | > 100 | > 100 | – | – | – | – | – | – | – | – | – | – | – |
